In patent US20240376091A1, “THIADIAZOLEAMIDE DERIVATIVES AND THEIR APPLICATIONS” (ZHEJIANG UNIVERSITY, priority 2021, published 2024):

Molecular target: T1, AR (Homo sapiens, UniProt P10275, T878A)
T1 construct: into the androgen-dependent PCa cells (LNCaP); endogenous in cells; host or cells: LNCaP-ARR2PB-eGFP
T1 sequence (P10275 1-920 T878A): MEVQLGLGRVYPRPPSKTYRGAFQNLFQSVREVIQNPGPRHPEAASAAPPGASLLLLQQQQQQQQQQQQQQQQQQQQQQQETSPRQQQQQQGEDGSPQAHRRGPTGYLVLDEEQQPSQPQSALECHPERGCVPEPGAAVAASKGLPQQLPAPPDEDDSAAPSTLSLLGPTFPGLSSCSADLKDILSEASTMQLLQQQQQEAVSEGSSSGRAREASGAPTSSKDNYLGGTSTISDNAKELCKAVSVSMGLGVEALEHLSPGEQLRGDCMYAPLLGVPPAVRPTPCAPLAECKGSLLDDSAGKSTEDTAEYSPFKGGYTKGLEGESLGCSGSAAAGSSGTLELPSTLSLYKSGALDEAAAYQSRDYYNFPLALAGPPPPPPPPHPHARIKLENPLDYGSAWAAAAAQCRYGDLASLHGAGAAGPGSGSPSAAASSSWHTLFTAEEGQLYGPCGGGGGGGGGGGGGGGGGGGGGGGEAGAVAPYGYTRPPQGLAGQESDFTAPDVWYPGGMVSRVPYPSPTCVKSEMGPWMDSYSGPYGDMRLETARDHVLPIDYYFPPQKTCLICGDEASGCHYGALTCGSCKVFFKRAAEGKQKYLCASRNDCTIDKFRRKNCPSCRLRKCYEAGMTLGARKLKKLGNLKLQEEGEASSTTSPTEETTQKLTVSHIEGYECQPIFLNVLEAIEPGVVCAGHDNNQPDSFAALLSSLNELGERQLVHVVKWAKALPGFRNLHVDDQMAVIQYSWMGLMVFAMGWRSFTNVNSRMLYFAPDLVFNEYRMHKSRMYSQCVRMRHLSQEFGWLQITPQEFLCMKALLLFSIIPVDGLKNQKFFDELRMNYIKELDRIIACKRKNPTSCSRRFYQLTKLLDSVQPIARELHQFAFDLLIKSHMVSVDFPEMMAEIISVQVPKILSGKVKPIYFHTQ
Assay: AR transcriptional activity, LNCaP-ARR2PB-eGFP reporter cells
Assay type: cell-based
Conditions: read-out: IC50 AR transcriptional activities
Text: Detection principles: We conducted a stable transfection of promoter ARR2PB known for its strong AR responsiveness, into the androgen-dependent PCa cells (LNCaP). The expression of enhanced green fluorescent protein (eGFP) is depending on the degree of activation of AR. Therefore, LNCaP-ARR2PB-eGFP cell line could quantitatively determine the AR antagonistic activities of the compounds by evaluating the expression of eGFP.

| SMILES | IC50 |
| --- | --- |
| Cc1oc(-c2cccc(C(F)(F)F)c2)cc1C(=O)Nc1nc(CC(C)(C)N)ns1 [Compound A-93, N-(3-(2-amino-2-methylpropyl)-1,2,4-thiadiazol-5-yl)-2-methyl-5-(3-(trifluoromethyl)phenyl)furan-3-carboxamide] | 30 nM |
| CNC(C)Cc1nsc(NC(=O)c2cc(-c3cccc(C(F)(F)F)c3)oc2C)n1 (centres unmarked) [Compound A-96, 2-Methyl-N-(3-(2-(methylamino)propyl)-1,2,4-thiadiazol-5-yl)-5-(3-(trifluoromethyl)phenyl)furan-3-carboxamide] | 160 nM |
| Cc1oc(-c2cccc(C(F)(F)F)c2)cc1C(=O)Nc1ncns1 [Compound A-99, 2-Methyl-N-(1,2,4-thiadiazol-5-yl)-5-(3-(trifluoromethyl)phenyl)furan-3-carboxamide] | 10400 nM |
| Cc1oc(-c2cccc(C(F)(F)F)c2)cc1C(=O)Nc1nc(CCl)ns1 [Compound A-105, N-(3-(chloromethyl)-1,2,4-thiadiazol-5-yl)-2-methyl-5-(3-(trifluoromethyl)phenyl)furan-3-carboxamide] | 22900 nM |
| Cc1oc(-c2cccc(C(F)(F)F)c2)cc1C(=O)Nc1nc(CN(C)C)ns1 [Compound A-106, N-(3-((dimethylamino)methyl)-1,2,4-thiadiazol-5-yl)-2-methyl-5-(3-(trifluoromethyl)phenyl)furan-3-carboxamide] | 1670 nM |
| CCN(CC)Cc1nsc(NC(=O)c2cc(-c3cccc(C(F)(F)F)c3)oc2C)n1 [Compound A-107, N-(3-((diethylamino)methyl)-1,2,4-thiadiazol-5-yl)-2-methyl-5-(3-(trifluoromethyl)phenyl)furan-3-carboxamide] | 1770 nM |
| Cc1oc(-c2cccc(C(F)(F)F)c2)cc1C(=O)Nc1nc(CN2CCCC2)ns1 [Compound A-108, 2-Methyl-N-(3-(pyrrolidin-1-ylmethyl)-1,2,4-thiadiazol-5-yl)-5-(3-(trifluoromethyl)phenyl)furan-3-carboxamide] | 840 nM |
| Cc1oc(-c2cccc(C(F)(F)F)c2)cc1C(=O)Nc1nc(CN2CCOCC2)ns1 [Compound A-110, 2-Methyl-N-(3-(morpholinomethyl)-1,2,4-thiadiazol-5-yl)-5-(3-(trifluoromethyl)phenyl) furan-3-carboxamide] | 250 nM |
| Cc1oc(-c2cccc(C(F)(F)F)c2)cc1C(=O)Nc1nc(CN2CCN(C)CC2)ns1 [Compound A-111, 2-Methyl-N-(3-((4-methylpiperazin-1-yl)methyl)-1,2,4-thiadiazol-5-yl)-5-(3-(trifluoro-methyl)phenyl)furan-3-carboxamide] | 570 nM |
| Cc1oc(-c2cccc(C#N)c2)cc1C(=O)Nc1nc(CCl)ns1 [Compound A-112, N-(3-(chloromethyl)-1,2,4-thiadiazol-5-yl)-5-(3-cyanophenyl)-2-methylfuran-3-carboxamide] | 1870 nM |
| COc1cccc(-c2cc(C(=O)Nc3nc(CN(C)C)ns3)c(C)o2)c1 [Compound A-118, N-(3-((dimethylamino)methyl)-1,2,4-thiadiazol-5-yl)-5-(3-methoxyphenyl)-2-methylfuran-3-carboxamide] | 2230 nM |
| CCN(CC)Cc1nsc(NC(=O)c2cc(-c3cccc(OC(F)(F)F)c3)oc2C)n1 [Compound A-123, N-(3-((diethylamino)methyl)-1,2,4-thiadiazol-5-yl)-2-methyl-5-(3-(trifluoromethoxy)phenyl)furan-3-carboxamide] | 590 nM |
| Cc1oc(-c2cccc(OC(F)(F)F)c2)cc1C(=O)Nc1nc(CN2CCCC2)ns1 [Compound A-124, 2-Methyl-N-(3-(pyrrolidin-1-ylmethyl)-1,2,4-thiadiazol-5-yl)-5-(3-(trifluoromethoxy)phenyl)furan-3-carboxamide] | 40 nM |
| Cc1oc(-c2cccc(OC(F)F)c2)cc1C(=O)Nc1nc(CN2CCCCC2)ns1 [Compound A-129, 5-(3-(Difluoromethoxy)phenyl)-2-methyl-N-(3-(piperidin-1-ylmethyl)-1,2,4-thiadiazol-5-yl)furan-3-carboxamide] | 60 nM |
| Cc1oc(-c2cccc(OC(F)F)c2)cc1C(=O)Nc1nc(CN2CCOCC2)ns1 [Compound A-130, 5-(3-(Difluoromethoxy)phenyl)-2-methyl-N-(3-(morpholinomethyl)-1,2,4-thiadiazol-5-yl)furan-3-carboxamide] | 670 nM |
| Cc1oc(-c2cccc(OC(F)F)c2)cc1C(=O)Nc1nc(CN2CCN(C)CC2)ns1 [Compound A-131, 5-(3-(Difluoromethoxy)phenyl)-2-methyl-N-(3-((4-methylpiperazin-1-yl)methyl)-1,2,4-thiadiazol-5-yl)furan-3-carboxamide] | 1420 nM |
| CC(Cc1nsc(NC(=O)c2coc(-c3cccc(C(F)(F)F)c3)c2)n1)N(C)C (centres unmarked) [Compound B-6, N-(3-(2-(dimethylamino)propyl)-1,2,4-thiadiazol-5-yl)-5-(3-(trifluoromethyl)phenyl) furan-3-carboxamide] | 11800 nM |
| CCN(CC)C(C)Cc1nsc(NC(=O)c2coc(-c3cccc(C(F)(F)F)c3)c2)n1 (centres unmarked) [Compound B-7, N-(3-(2-(diethylamino)propyl)-1,2,4-thiadiazol-5-yl)-5-(3-(trifluoromethyl)phenyl)furan-3-carboxamide] | 15000 nM |

Now from value to compound:

| IC50 | SMILES |
| --- | --- |
| 18600 nM | CC(=O)Cc1nsc(NC(=O)c2coc(-c3cccc(C(F)(F)F)c3)c2)n1 [Compound B-1, N-(3-(2-oxopropyl)-1,2,4-thiadiazol-5-yl)-5-(3-(trifluoromethyl)phenyl)furan-3-carboxamide] |
| 54900 nM | CC(=O)Cc1nsc(NC(=O)c2coc(-c3cccc(C#N)c3)c2)n1 [Compound B-2, 5-(3-Cyanophenyl)-N-(3-(2-oxopropyl)-1,2,4-thiadiazol-5-yl)furan-3-carboxamide] |
| 12600 nM | COc1cccc(-c2cc(C(=O)Nc3nc(CC(C)=O)ns3)co2)c1 [Compound B-3, 5-(3-Methoxyphenyl)-N-(3-(2-oxopropyl)-1,2,4-thiadiazol-5-yl)furan-3-carboxamide] |
| 32500 nM | CC(=O)Cc1nsc(NC(=O)c2coc(-c3cccc(OC(F)(F)F)c3)c2)n1 [Compound B-4, N-(3-(2-oxopropyl)-1,2,4-thiadiazol-5-yl)-5-(3-(trifluoromethoxy)phenyl)furan-3-carboxamide] |
| 19600 nM | CC(=O)Cc1nsc(NC(=O)c2coc(-c3cccc(OC(F)F)c3)c2)n1 [Compound B-5, 5-(3-(Difluoromethoxy)phenyl)-N-(3-(2-oxopropyl)-1,2,4-thiadiazol-5-yl)furan-3-carboxamide] |
| 23300 nM | CC(Cc1nsc(NC(=O)c2coc(-c3cccc(C#N)c3)c2)n1)N1CCCC1 (centres unmarked) [Compound B-12, 5-(3-Cyanophenyl)-N-(3-(2-(pyrrolidin-1-yl)propyl)-1,2,4-thiadiazol-5-yl)furan-3-carboxamide] |
| 33600 nM | COc1cccc(-c2cc(C(=O)Nc3nc(CC(C)N4CCCCC4)ns3)co2)c1 (centres unmarked) [Compound B-14, 5-(3-Methoxyphenyl)-N-(3-(2-(piperidin-1-yl)propyl)-1,2,4-thiadiazol-5-yl)furan-3-carboxamide] |
| 35700 nM | CC(Cc1nsc(NC(=O)c2coc(-c3cccc(OC(F)(F)F)c3)c2)n1)N1CCOCC1 (centres unmarked) [Compound B-16, N-(3-(2-morpholinopropyl)-1,2,4-thiadiazol-5-yl)-5-(3-(trifluoromethoxy)phenyl)furan-3-carboxamide] |
